In US8962671B2, “Amino-substituted 3-heteroaroylamino-propionic acid derivatives and their use as pharmaceuticals” (Sanofi, priority 2011, dated 2015):
pIC50: −log10 of the molar value.

Each compound was assayed against T1, Recombinant human cathepsin A (Homo sapiens, UniProt P10619) (assay: Cathepsin A inhibitory activity). Conditions: activated recombinant human cathepsin A 833 ng/ml, Bodipy FL-labeled bradykinin 2 μM, pH 5.5, 15 min room temperature.
T1 construct: Recombinant human cathepsin A (residues 29-480, with a C-terminal 10-His tag); 10-His (C); purchased R&D Systems 1049-SE
T1 sequence (P10619 29-326 limits assumed): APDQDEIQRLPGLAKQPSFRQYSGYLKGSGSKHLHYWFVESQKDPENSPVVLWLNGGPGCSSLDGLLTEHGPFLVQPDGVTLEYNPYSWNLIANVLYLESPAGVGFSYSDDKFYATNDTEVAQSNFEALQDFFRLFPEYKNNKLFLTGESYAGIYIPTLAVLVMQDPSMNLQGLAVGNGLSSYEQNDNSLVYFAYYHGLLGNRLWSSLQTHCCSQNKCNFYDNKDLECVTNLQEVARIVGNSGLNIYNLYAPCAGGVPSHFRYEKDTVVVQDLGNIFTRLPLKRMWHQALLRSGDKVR
T1 sequence (P10619 327-480 limits assumed): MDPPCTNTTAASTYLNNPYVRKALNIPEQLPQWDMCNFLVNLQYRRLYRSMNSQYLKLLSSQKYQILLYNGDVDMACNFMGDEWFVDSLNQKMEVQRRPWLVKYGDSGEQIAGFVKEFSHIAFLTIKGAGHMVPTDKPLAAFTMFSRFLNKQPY
Format: biochemical
Protocol: a) Cathepsin a Inhibitory Activity
Recombinant human cathepsin A (residues 29-480, with a C-terminal 10-His tag; R&D Systems, #1049-SE) was proteolytically activated with recombinant human cathepsin L (R&D Systems, #952-CY). Briefly, cathepsin A was incubated at 10 μg/ml with cathepsin L at 1 μg/ml in activation buffer (25 mM 2-(morpholin-4-yl)-ethanesulfonic acid (MES), pH 6.0, containing 5 mM dithiothreitol (DTT)) for 15 min at 37° C. Cathepsin L activity was then stopped by the addition of the cysteine protease inhibitor E-64 (N-(trans-epoxysuccinyl)-L-leucine-4-guanidinobutylamide; Sigma-Aldrich, #E3132; dissolved in activation buffer/DMSO) to a final concentration of 10 μM.
The activated cathepsin A was diluted in assay buffer (25 mM MES, pH 5.5, containing 5 mM DTT) and mixed with the test compound (dissolved in assay buffer containing (v/v) 3% DMSO) or, in the control experiments, with the vehicle in a multiple assay plate. After incubation for 15 min at room temperature, as substrate then bradykinin carrying an N-Terminal®Bodipy FL (4,4-difluoro-5,7-dimethyl-4-bora-3a,4a-diaza-s-indacene-3-propionyl) label (JPT Peptide Technologies GmbH; dissolved in assay buffer) was added to the mixture. The final concentration of cathepsin A was 833 ng/ml and the final concentration of labeled bradykinin 2 μM. After incubation for 15 min at room temperature the reaction was stopped by the addition of stop buffer (130 mM 2-(4-(2-hydroxy-ethyl)-piperazin-1-yl)-ethanesulfonic acid, pH 7.4, containing (v/v) 0.013%®Triton X-100, 0.13% Coating Reagent 3 (Caliper Life Sciences), 6.5% DMSO and 20 μM ebelactone B (Sigma, #E0886)).
Uncleaved substrate and product were then separated by a microfluidic capillary electrophoresis on a LabChip® 3000 Drug Discovery System (12-Sipper-Chip; Caliper Life Sciences) and quantified by determination of the respective peak areas. Substrate turnover was calculated by dividing product peak area by the sum of substrate and product peak areas, and the enzyme activity and the inhibitory effect of the test compound thus quantified. From the percentage of inhibition of cathepsin A activity observed with the test compound at several concentrations, the inhibitory concentration IC50, i.e. the concentration which effects 50% inhibition of enzyme activity was, calculated.

**Q.** Cc1ccccc1[C@H](CC(=O)O)NC(=O)c1cc(NC[C@H](O)C(C)(C)C)n(-c2ccccc2)n1 (single isomer, unassigned) [Example 59] was tested. Which pIC50 did it give?
**A.** Its pIC50 is 7.60.

**Q.** Cc1ccccc1[C@H](CC(=O)O)NC(=O)c1cc(NC[C@@H](O)C(C)(C)C)n(-c2ccccc2)n1 (single isomer, unassigned) [Example 60] was tested. Which pIC50 did it give?
**A.** The pIC50 was 7.95.

**Q.** Cc1ccccc1[C@H](CC(=O)O)NC(=O)c1cc(N)n(-c2ccccc2)n1 [Example 1, (S)-3-[(5-Amino-1-phenyl-1H-pyrazole-3-carbonyl)-amino]-3-o-tolyl-propionic acid] was tested. Which pIC50 did it give?
**A.** Its pIC50 is 7.60.

**Q.** Nc1cc(C(=O)NC(CC(=O)O)c2ccc(-c3ccc(F)cc3)cc2)nn1-c1ccccc1 (centres unmarked) [Example 2, 3-[(5-Amino-1-phenyl-1H-pyrazole-3-carbonyl)-amino]-3-(4′-fluoro-biphenyl-4-yl)-propionic acid] was tested. Which pIC50 did it give?
**A.** Its pIC50 is 7.27.

**Q.** Cc1ccccc1[C@H](CC(=O)O)NC(=O)c1cc(N)n(-c2ccccc2F)n1 [Example 3, (S)-3-{[5-Amino-1-(2-fluoro-phenyl)-1H-pyrazole-3-carbonyl]-amino}-3-o-tolyl-propionic acid] was tested. Which pIC50 did it give?
**A.** The pIC50 was 7.86.

**Q.** Nc1cc(C(=O)NC(CC(=O)O)c2ccc(-c3ccc(F)cc3)cc2)nn1-c1ccccc1F (centres unmarked) [Example 4, 3-{[5-Amino-1-(2-fluoro-phenyl)-1H-pyrazole-3-carbonyl]-amino}-3-(4′-fluoro-biphenyl-4-yl)-propionic acid] was tested. Which pIC50 did it give?
**A.** Its pIC50 is 7.73.

**Q.** How did the pIC50 turn out when Cc1ccccc1[C@H](CC(=O)O)NC(=O)c1nn(-c2ccccc2F)c(N)c1C#N [Example 5, (S)-3-{[5-Amino-4-cyano-1-(2-fluoro-phenyl)-1H-pyrazole-3-carbonyl]-amino}-3-o-tolyl-propionic acid] was run?
**A.** Its pIC50 is 7.73.

**Q.** With Cc1ccccc1[C@H](CC(=O)O)NC(=O)c1cc(N2CCCC2)n(-c2ccccc2)n1 [Example 6, (S)-3-[(1-Phenyl-5-pyrrolidin-1-yl-1H-pyrazole-3-carbonyl)-amino]-3-o-tolyl-propionic acid] as the compound, how does the pIC50 read?
**A.** Its pIC50 is 7.81.

**Q.** With Nc1cc(C(=O)NC(CC(=O)O)c2ccc(-c3ccccn3)cc2)nn1-c1ccccc1F (centres unmarked) [Example 7, 3-{[5-Amino-1-(2-fluoro-phenyl)-1H-pyrazole-3-carbonyl]-amino}-3-(4-pyridin-2-yl-phenyl)-propionic acid] as the compound, how does the pIC50 read?
**A.** Its pIC50 is 7.69.

**Q.** Nc1cc(C(=O)N[C@@H](CC(=O)O)c2cccc(Cl)c2Cl)nn1-c1ccccc1F [Example 8, (S)-3-{[5-Amino-1-(2-fluoro-phenyl)-1H-pyrazole-3-carbonyl]-amino}-3-(2,3-dichloro-phenyl)-propionic acid] was tested. Which pIC50 did it give?
**A.** The pIC50 was 7.63.

**Q.** With Nc1cc(C(=O)NC(CC(=O)O)c2cc(Cl)ccc2Cl)nn1-c1ccccc1F (centres unmarked) [Example 9, 3-{[5-Amino-1-(2-fluoro-phenyl)-1H-pyrazole-3-carbonyl]-amino}-3-(2,5-dichloro-phenyl)-propionic acid] as the compound, how does the pIC50 read?
**A.** The pIC50 was 6.70.

**Q.** How did the pIC50 turn out when Cc1ccccc1[C@H](CC(=O)O)NC(=O)c1cc(NC(=O)Nc2ccccc2)n(-c2ccccc2)n1 [Example 10, (S)-3-{[1-Phenyl-5-(3-phenyl-ureido)-1H-pyrazole-3-carbonyl]-amino}-3-o-tolyl-propionic acid] was run?
**A.** Its pIC50 is 7.85.

**Q.** With Cc1ccccc1[C@H](CC(=O)O)NC(=O)c1cc(NS(C)(=O)=O)n(-c2ccccc2)n1 [Example 11, (S)-3-[(5-Methanesulfonylamino-1-phenyl-1H-pyrazole-3-carbonyl)-amino]-3-o-tolyl-propionic acid] as the compound, how does the pIC50 read?
**A.** Its pIC50 is 7.60.

**Q.** How did the pIC50 turn out when Cc1ccccc1[C@H](CC(=O)O)NC(=O)c1cc(N2CCCS2(=O)=O)n(-c2ccccc2F)n1 [Example 12, (S)-3-{[5-(1,1-Dioxo-1lambda6-isothiazolidin-2-yl)-1-(2-fluoro-phenyl)-1H-pyrazole-3-carbonyl]-amino}-3-o-tolyl-propionic acid] was run?
**A.** Its pIC50 is 7.87.

**Q.** With Cc1ccccc1[C@H](CC(=O)O)NC(=O)c1cc(N2CCCC2)n(-c2ccccc2F)n1 [Example 13, (S)-3-{[1-(2-Fluoro-phenyl)-5-pyrrolidin-1-yl-1H-pyrazole-3-carbonyl]-amino}-3-o-tolyl-propionic acid] as the compound, how does the pIC50 read?
**A.** Its pIC50 is 8.08.

**Q.** Cc1ccccc1[C@H](CC(=O)O)NC(=O)c1cc(N2CCCC2=O)n(-c2ccccc2F)n1 [Example 14, (S)-3-{[1-(2-Fluoro-phenyl)-5-(2-oxo-pyrrolidin-1-yl)-1H-pyrazole-3-carbonyl]-amino}-3-o-tolyl-propionic acid] was tested. Which pIC50 did it give?
**A.** Its pIC50 is 7.59.

**Q.** Cc1ccccc1[C@H](CC(=O)O)NC(=O)c1cc(N2CCCC2=O)n(-c2ccccc2)n1 [Example 15, (S)-3-{[5-(2-Oxo-pyrrolidin-1-yl)-1-phenyl-1H-pyrazole-3-carbonyl]-amino}-3-o-tolyl-propionic acid] was tested. Which pIC50 did it give?
**A.** The pIC50 was 7.59.

**Q.** With Cc1ccccc1[C@H](CC(=O)O)NC(=O)c1cc(N2CCCS2(=O)=O)n(-c2ccccc2)n1 [Example 16, (S)-3-{[5-(1,1-Dioxo-1lambda6-isothiazolidin-2-yl)-1-phenyl-1H-pyrazole-3-carbonyl]-amino}-3-o-tolyl-propionic acid] as the compound, how does the pIC50 read?
**A.** Its pIC50 is 7.75.

**Q.** How did the pIC50 turn out when Cc1ccccc1[C@H](CC(=O)O)NC(=O)c1cc(N2CCCCC2=O)n(-c2ccccc2)n1 [Example 17, (S)-3-{[5-(2-Oxo-piperidin-1-yl)-1-phenyl-1H-pyrazole-3-carbonyl]-amino}-3-o-tolyl-propionic acid] was run?
**A.** The pIC50 was 7.19.

**Q.** With Cc1ccccc1[C@H](CC(=O)O)NC(=O)c1cc(N2CCCCC2=O)n(-c2ccccc2F)n1 [Example 18, (S)-3-{[1-(2-Fluoro-phenyl)-5-(2-oxo-piperidin-1-yl)-1H-pyrazole-3-carbonyl]-amino}-3-o-tolyl-propionic acid] as the compound, how does the pIC50 read?
**A.** Its pIC50 is 7.34.

**Q.** Cc1ccccc1[C@H](CC(=O)O)NC(=O)c1cc(Nc2ccccn2)n(-c2ccccc2)n1 [Example 19, (S)-3-{[1-Phenyl-5-(pyridin-2-ylamino)-1H-pyrazole-3-carbonyl]-amino}-3-o-tolyl-propionic acid] was tested. Which pIC50 did it give?
**A.** Its pIC50 is 7.30.

**Q.** With O=C(O)CC(NC(=O)c1cc2[nH]c3ccccc3n2n1)c1ccc(F)c(F)c1 (centres unmarked) [Example 20, 3-[(4H-Benzo[4,5]imidazo[1,2-b]pyrazole-2-carbonyl)-amino]-3-(3,4-difluoro-phenyl)-propionic acid] as the compound, how does the pIC50 read?
**A.** Its pIC50 is 5.48.

**Q.** How did the pIC50 turn out when N#Cc1ccc(C(CC(=O)O)NC(=O)c2cc3[nH]c4ccccc4n3n2)cc1 (centres unmarked) [Example 21, 3-[(4H-Benzo[4,5]imidazo[1,2-b]pyrazole-2-carbonyl)-amino]-3-(4-cyano-phenyl)-propionic acid] was run?
**A.** The pIC50 was 5.62.

**Q.** O=C(O)CC(NC(=O)c1cc2[nH]c3ccccc3n2n1)c1cccc2c1OCO2 (centres unmarked) [Example 22, 3-Benzo[1,3]dioxol-4-yl-3-[(4H-benzo[4,5]imidazo[1,2-b]pyrazole-2-carbonyl)-amino]-propionic acid] was tested. Which pIC50 did it give?
**A.** The pIC50 was 5.95.

**Q.** How did the pIC50 turn out when O=C(O)CC(NC(=O)c1cc2[nH]c3ccccc3n2n1)c1cccc(F)c1 (centres unmarked) [Example 23, 3-[(4H-Benzo[4,5]imidazo[1,2-b]pyrazole-2-carbonyl)-amino]-3-(3-fluoro-phenyl)-propionic acid] was run?
**A.** Its pIC50 is 5.51.

**Q.** With O=C(O)CC(NC(=O)c1cc2[nH]c3ccccc3n2n1)c1ccccc1F (centres unmarked) [Example 24, 3-[(4H-Benzo[4,5]imidazo[1,2-b]pyrazole-2-carbonyl)-amino]-3-(2-fluoro-phenyl)-propionic acid] as the compound, how does the pIC50 read?
**A.** The pIC50 was 5.76.

**Q.** How did the pIC50 turn out when O=C(O)CC(NC(=O)c1cc2[nH]c3ccccc3n2n1)c1cccc(Oc2ccccc2)c1 (centres unmarked) [Example 26, 3-[(4H-Benzo[4,5]imidazo[1,2-b]pyrazole-2-carbonyl)-amino]-3-(3-phenoxy-phenyl)-propionic acid] was run?
**A.** Its pIC50 is 5.58.

**Q.** O=C(O)CC(NC(=O)c1cc2[nH]c3ccccc3n2n1)c1cc(F)ccc1Cl (centres unmarked) [Example 32, 3-[(4H-Benzo[4,5]imidazo[1,2-b]pyrazole-2-carbonyl)-amino]-3-(2-chloro-5-fluoro-phenyl)-propionic acid] was tested. Which pIC50 did it give?
**A.** Its pIC50 is 6.18.

**Q.** With O=C(O)CC(NC(=O)c1cc2[nH]c3ccccc3n2n1)c1cc(F)ccc1F (centres unmarked) [Example 33, 3-[(4H-Benzo[4,5]imidazo[1,2-b]pyrazole-2-carbonyl)-amino]-3-(2,5-difluoro-phenyl)-propionic acid] as the compound, how does the pIC50 read?
**A.** Its pIC50 is 5.57.
